Here are results for five compounds from patent publication EP1399176B1, “SUBSTANTIALLY PURE GLYCOPEPTIDE ANTIBIOTICS AC-98-1; AC-98-2; AC-98-3; AC-98-4 AND AC-98-5” (Wyeth Holdings Corporation, priority 2001, dated 2002).

Test in all cases: in vitro antibacterial activity, agar dilution method (MIC)
Holding throughout (format): cell-based
Holding throughout (design): unit not given here
What all share (conditions): Mueller-Hinton agar containing 5% sheep blood, 18 hours incubation
Background: In agar dilution, organisms are placed on agar that contains the substance at set levels.

Assay [1] concerns Morganella morganii (VGH 84-11). As to the method: (§1) The in vitro antibacterial activity of substantially pure glycopeptide antibiotics AC-98-1, AC-98-2, AC-98-3, AC-98-4, and AC-98-5 from Examples 2 and 3 is determined against a spectrum of bacteria by a standard agar dilution method. Mueller-Hinton agar containing 5% sheep blood and two-fold decreasing concentrations of substantially pure glycopeptide antibiotics AC-98-1, AC-98-2, AC-98-3, AC-98-4, and AC-98-5 from Examples 2 and 3 are poured into petri dishes. The agar surfaces are inoculated with 1 to 5 X 10^4 colony forming units of bacteria by means of a Steers replicating device. The lowest concentration of antibiotic that inhibited the growth of a bacterial strain after 18 hours incubation is recorded as the minimal inhibitory concentration for that strain. Table II. In vitro antibacterial activity of substantially pure antibiotics AC-98-1, AC-98-2, AC-98-3, AC-98-4, and AC-98-5 from Examples 2 and 3

The subject of assay [2] is Pseudomonas aeruginosa (ATCC 27853). As to the method: as §1
Assay [3] has as its system Escherichia coli (J2175). As to the method:
as §1

The subject of assay [4] is Enterococcus faecium (12202). As to the method:
as §1

The test system of assay [5] is Staphylococcus aureus (ID-2371). As to the method: as §1
The test system of assay [6] is Staphylococcus hemolyticus (ID-4061). As to the method:
as §1

The subject of assay [7] is Enterococcus faecalis (ID-1829). As to the method:
as §1

The subject of assay [8] is Bacillus subtilis (Bacto). As to the method: as §1
The test system of assay [9] is Staph Coagulase Neg (4615). As to the method: as §1
The test system of assay [10] is Enterococcus faecium (ID-4133). As to the method:
as §1

The test system of assay [11] is Enterococcus faecium (ID-3953). As to the method: as §1
Assay [12] has as its system Staphylococcus aureus (ATCC 29213). As to the method:
as §1

Assay [13] concerns Enterococcus faecium (ID-3301). As to the method:
as §1

In assay [14] the test system is Staphylococcus aureus (SMITH). As to the method:
as §1

Assay [15] deals with Staphylococcus aureus (ID-4379). As to the method:
as §1

Assay [16] relates to Staph Coagulase Neg (ID-3276). As to the method:
as §1

Assay [17] concerns Enterococcus faecalis (ATCC 29212). As to the method:
as §1

Assay [18] concerns Staphylococcus aureus (ID-2727). As to the method: as §1
In assay [19] the test system is Enterococcus faecalis (ID-2131). As to the method:
as §1

For assay [20], the system named is Staphylococcus aureus (NEMC-89-4). As to the method: as §1
The test system of assay [21] is Staphylococcus aureus (ID-3105). As to the method:
as §1

Numbered stars: 1 amine (or outer) side, 2 acyl side, 3 side chain; on linkers, the order of the positions; unused ones are H or OH. Square brackets hold non-standard residues; d marks the D form. Peptide text beside a SMILES is read from it. * marks the point of attachment. ξ: configuration not given here. X1 = N=C1NCC(C(O)C(N[*:1])C(=O)[*:2])N1C1OC(CO)C(O)C(O)C1O; ξEnduracididine(βξ-OH,4'ξ) = N=C1NCC(C(O)C(N)C(=O)O)N1; X2 = OCC1OC(OC2C(CO)OC(*)C(O)C2O)C(O)C(O)C1O; ξPhe(βξ-Me) = CC(c1ccccc1)C(N)C(=O)O

For `CC(C)CC(=O)OC1C(CO)OC(OC2C(CO)OC(Oc3ccc(CC4NC(=O)C(C(C)c5ccccc5)NC(=O)CNC(=O)C(CO)NC(=O)C(C(O)C5CNC(=N)N5C5OC(CO)C(O)C(O)C5O)NC(=O)C(C(O)C5CNC(=N)N5)NC4=O)cc3)C(O)C2O)C(O)C1O` (stereo not drawn) [AC-98-5], the MIC in [1] and in assay [2] was greater than 128 throughout.

`CC(C)CC(=O)OC1C(O)C(CO)OC(OC2C(CO)OC(Oc3ccc(CC4NC(=O)C(C(C)c5ccccc5)NC(=O)CNC(=O)C(CO)NC(=O)C(C(O)C5CNC(=N)N5C5OC(CO)C(O)C(O)C5O)NC(=O)C(C(O)C5CNC(=N)N5)NC4=O)cc3)C(O)C2O)C1O` (stereo not drawn) [AC-98-4]: the MIC in assay [1] is recorded as greater than 128; in assay [2] it was greater than 128; in assay [3] it was 128.

Turning to `CC(c1ccccc1)C1NC(=O)CNC(=O)C(CO)NC(=O)C(C(O)C2CNC(=N)N2C2OC(CO)C(O)C(O)C2O)NC(=O)C(C(O)C2CNC(=N)N2)NC(=O)C(Cc2ccc(OC3OC(CO)C(OC4OC(CO)C(O)C(O)C4O)C(O)C3O)cc2)NC1=O` (stereo not drawn) [AC-98-1] (cyclo(G[ξPhe(βξ-Me)]Y(X2)[ξEnduracididine(βξ-OH,4'ξ)][X1]S); configuration not given here), the MIC in assay [4] was greater than 128; in assay [5], greater than 128; in assay [6] it was 128; in assay [7] it was greater than 128; in [8], greater than 128; in assay [9], greater than 128. Also, the MIC in assay [10] is 128; in assay [11] it was greater than 128; in [12], 128; in [13] it was greater than 128; in assay [14] it was 128; in assay [15], 128. Besides, the MIC was greater than 128 in assay [1]; 128 in [16]; greater than 128 in assay [2]; greater than 128 in [17]; greater than 128 in assay [18]; greater than 128 in [19]. Moreover, the MIC in assay [20] is greater than 128; in [21] it was 128.

Turning to `CC(C)CC(=O)OC1C(OC2C(CO)OC(Oc3ccc(CC4NC(=O)C(C(C)c5ccccc5)NC(=O)CNC(=O)C(CO)NC(=O)C(C(O)C5CNC(=N)N5C5OC(CO)C(O)C(O)C5O)NC(=O)C(C(O)C5CNC(=N)N5)NC4=O)cc3)C(O)C2O)OC(CO)C(O)C1O` (stereo not drawn) [AC-98-3], the MIC is greater than 128 in assay [1], greater than 128 in [2] and 128 in assay [19].

Turning to `CC(c1ccccc1)C1NC(=O)CNC(=O)C(CO)NC(=O)C(C(O)C2CNC(=N)N2C2OC(CO)C(O)C(O)C2O)NC(=O)C(C(O)C2CNC(=N)N2)NC(=O)C(Cc2ccc(O)cc2)NC1=O` (stereo not drawn) [AC-98-2] (cyclo(G[ξPhe(βξ-Me)]Y[ξEnduracididine(βξ-OH,4'ξ)][X1]S); configuration not given here), the MIC in assay [4] is recorded as 128; in [5], 128; in [7], 128; in assay [8] it was greater than 128; in [9] it was 128; in assay [11] it was 128. For the same compound, the MIC in assay [13], in assay [1], in [2], in assay [17] and in [19] was greater than 128 throughout.
